# Reference: article PMC5737775 (Journal of Alzheimer's disease : JAD, 2017)
# What was measured:
# [1] = target: rAβ42 (Aβ1-42) aggregation (Homo sapiens, UniProt P05067); assay: Thioflavin T assay of Aβ42 aggregation; format: biochemical; details: for anti-aggregation activity, result in words: Aβ1-42, 48 h, thioflavin T, 1, 3, 10, 30 μM
# peritoneal macrophages = assay: MTT cytotoxicity assay on peritoneal macrophages; format: cell-based, C57Bl/6 mice; details: for cell viability (MTT): at the concentrations tested (1, 3, 10, 30 μM)
# [2] = system: IL-6 production by peritoneal macrophages stimulated with LPS; assay: IL-6 secretion by LPS-stimulated murine peritoneal macrophages; format: cell-based, C57Bl/6 mice; details: for inhibition of IL-6 at 30 μM: 30 μM compound, LPS 10 ng/mL; for anti-inflammatory activity (IL-6 secretion), result in words: LPS-stimulated macrophages, 1, 3, 10, 30 μM
# Chain of rAβ42 (Aβ1-42) aggregation (P05067 672-713 limits assumed): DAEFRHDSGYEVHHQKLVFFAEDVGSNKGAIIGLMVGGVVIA
IC50 [1] [nM],SMILES,"anti-aggregation activity, result in words [1]",cytotoxicity (MTT) at 30 μM (peritoneal macrophages; 30 μM),inhibition of IL-6 at 30 μM [2],"anti-inflammatory activity (IL-6 secretion), result in words [2]",cell viability (MTT) (peritoneal macrophages)
–,"C#CCOc1ccc(/C=C/C(=O)CC(=O)/C=C/c2ccc(OCC#C)c(OC)c2)cc1OC [Compound 2, (1E,6E)-1,7-bis(3-methoxy-4-(prop-2-yn-1-yloxy)phenyl)hepta-1,6-diene-3,5-dione]",did not present anti-aggregation activity,–,–,–,–
–,"COc1cc(/C=C/C(O)=C/C(=O)/C=C/c2ccc(OCc3ccccc3)c(OC)c2)ccc1O [Compound 3, (1E, 4Z, 6E)-1-(4-(benzyloxy)-3-methoxyphenyl)-5-hydroxy-7-(4-hydroxy-3-metho-xyphenyl)hepta-1,4,6-trien-3-one]",inhibited the aggregation of Aβ in a concentration-dependent manner,–,–,–,–
1320 ± 700,"COc1cc(/C=C/C(O)=C/C(=O)/C=C/c2ccc(OC(C)=O)c(OC)c2)ccc1O [Compound 4, 4-((1E,4Z,6E)-5-hydroxy-7-(4-hydroxy-3-methoxyphenyl)-3-oxohepta-1,4,6-trien-1-yl)-2-methoxyphenyl acetate]",inhibited the aggregation of Aβ in a concentration-dependent manner,–,–,–,–
–,"C=CCOC(=O)CCC(=O)Oc1ccc(/C=C/C(=O)/C=C(O)/C=C/c2ccc(OC(=O)CCC(=O)OCC=C)c(OC)c2)cc1OC [Compound 5, diallyl O,O′-(((1E,3Z,6E)-3-hydroxy-5-oxohepta-1,3,6-triene-1,7-diyl)bis(2-methoxy-4,1-phenylene)) disuccinate]",inhibited the aggregation of Aβ in a concentration-dependent manner,exhibited cytotoxicity,complete inhibition,mid-to-strong inhibition,–
1770 ± 900,"C=CCOC(=O)CCC(=O)Oc1ccc(/C=C/C(=O)/C=C(O)/C=C/c2ccc(O)c(OC)c2)cc1OC [Compound 6, allyl (4-((1E,4Z,6E)-5-hydroxy-7-(4-hydroxy-3-methoxyphenyl)-3-oxohepta-1,4,6-trien-1-yl)-2-methoxyphenyl) succinate]",inhibited the aggregation of Aβ in a concentration-dependent manner,–,complete inhibition,mid-to-strong inhibition,did not affect the cell viability
–,"COc1cc(/C=C/C(=O)/C=C(O)/C=C/c2ccc(OC(=O)CCC(=O)OCc3ccccc3)c(OC)c2)ccc1OC(=O)CCC(=O)OCc1ccccc1 [Compound 7, dibenzyl O,O′-(((1E,3Z,6E)-3-hydroxy-5-oxohepta-1,3,6triene-1,7-diyl)bis(2-methoxy-4,1-phenylene)) disuccinate]",–,–,–,did not show any anti-inflammatory activity,–
–,"COc1cc(/C=C/C(O)=C/C(=O)/C=C/c2ccc(OC(=O)CCC(=O)OCc3ccccc3)c(OC)c2)ccc1O [Compound 8, benzyl (4-((1E,4Z,6E)-5-hydroxy-7-(4-hydroxy-3-methoxyphenyl)-3-oxohepta-1,4,6-trien-1-yl)-2-methoxyphenyl) succinate]",did not present anti-aggregation activity,–,complete inhibition,mid-to-strong inhibition,did not affect the cell viability
–,"COc1cc(C=CC(=O)C=C(O)C=Cc2ccc(OC(=O)CCC(=O)OC3CCCC3)c(OC)c2)ccc1OC(=O)CCC(=O)OC1CCCC1 [Compound 9, dicyclopentyl O,O′-(((1E,3Z,6E)-3-hydroxy-5-oxohepta-1,3,6-triene-1,7-diyl)bis(2-methoxy-4,1-phenylene)) disuccinate]",did not present anti-aggregation activity,–,–,did not show any anti-inflammatory activity,–
2040 ± 700,"COc1cc(/C=C/C(O)=C/C(=O)/C=C/c2ccc(OC(=O)CCC(=O)OC3CCCC3)c(OC)c2)ccc1O [Compound 10, cyclopentyl (4-((1E,4Z,6E)-5-hydroxy-7-(4-hydroxy-3-methoxyphenyl)-3-oxohepta-1,4,6-trien-1-yl)-2-methoxyphenyl) succinate]",inhibited the aggregation of Aβ in a concentration-dependent manner,–,complete inhibition,mid-to-strong inhibition,did not affect the cell viability
